{"source": "paper PMC10313368", "about": "(The Journal of Clinical Investigation, 2023)", "test_system": "OIR mice", "assay": "Retinal NV in the oxygen-induced retinopathy (OIR) mouse model", "format": "in vivo", "set-up": "Figure 14 C (retinal NV, OIR) / Figure 14 E (retinal NV, OIR): unit not given here", "description": "To characterize the contribution of these other HIF-regulated angiogenic factors to the promotion of ischemia-driven retinal NV in vivo, we used the classic oxygen-induced retinopathy (OIR) model characterized by Smith and colleagues ([35]). In stage 1 of this model, P7 pups are exposed to hyperoxia (75% O2) for 5 consecutive days (P7–P12), resulting in obliteration of the posterior retinal vasculature. In stage 2, pups (at P12) are returned to room air (21% O2). The resulting relative ischemia promotes the expression of angiogenic mediators that stimulate the development of retinal NV (peaking at P17; Figure 2A). […]\nAnimal studies. Eight-week-old pathogen-free female C57BL/6 mice were obtained from The Jackson Laboratory (JAX). Timed pregnant C57BL/6 mice were obtained from Charles River Laboratories. Mice heterozygous for HIF-1α have been previously described (2). Mice heterozygous for HIF-2α (strain number: 003266; common name: EPAS1 KO) were purchased […]\nOIR mouse model. OIR experiments were performed as previously described (1, 3). Briefly, C57BL/6 mice were placed in 75% O2 on P7. On P12, the mice were returned to room air and were […]\n(or vehicle) by intravitreal injection. Mice with body weight less than 6 g at P17 were excluded […]\nfrom analysis. Data were collected from both males and females and the results were combined since there was no apparent difference between sexes. Representative images for selected time points from a minimum of three independent experiments are shown. Data from 3-8 pups were obtained at each time point. […]\nIntraperitoneal (IP) injections. […]\nintraperitoneally using an insulin syringe in OIR pups. […]\nthe peritoneal cavity of neonatal C57BL/6 mice and STZ mice at indicated times, and the retinal vasculature and lysates for WB and qPCR were assessed at P17.\nIntraocular injections. Intravitreal injections were performed with a PLI-100A Pico-liter Microinjector (Warner Instruments, Harvard Bioscience) using pulled-glass micropipettes. Each micropipette was calibrated to deliver a 1 μl volume on depression of a foot switch. The mice were anesthetized with a ketamine (100 mg/kg) and xylazine (5mg/kg) mixture, and under a dissecting microscope, the sharpened tip of the micropipette was passed through the sclera just posterior to the limbus into the vitreous cavity and the foot switch was depressed, which caused fluid to […]\npenetrate into the vitreous space. […]\nmice for vascular permeability test, retinal vasculature, and lysates for WB and qPCR analysis.\nImmunoﬂuorescence assays. Details for antibodies are provided in Supplemental Table 1.\nImmunofluorescence assays in retinal organoids and mouse retinal tissues were performed as previously described (4). Briefly, mice were sacrificed using CO2 asphyxiation, and the eyes were enucleated and fixed with a solution of 4% paraformaldehyde in PBS (Thermo Scientific™) for two hours at RT, followed by washing with PBS for 10 minutes in a shaker. Retinas were isolated and incubated in 0.5% BSA solution overnight at 4 °C. Retinas were then washed with PBS 3 times for 10 minutes in the shaker and stained with isolectin B4 (Invitrogen; 1:200 dilution in PBS) overnight at 4 °C. After washing 3 times for 10 minutes each in the shaker, the retinas were mounted. Images were captured with Zeiss fluorescent microscope. Eight fields per eye (2 fields per petal) including area of neovascularization were selected and fluorescence intensity was measured by ImageJ software. […]\nThe eyes were enucleated and immediately immersed in 4% (wt/vol) paraformaldehyde for 2 hours at room temperature. Retinas were isolated and wholemounts prepared on clean glass slides and mounted vitreous side up under coverslips with antifade medium (Vectashield; Vector Laboratories, Burlingame, CA). Images were captured by Zeiss fluorescent microscope or confocal microscopy and fluorescence was quantified by the image J software (National Institutes", "key": {"[1]": {"conditions": "OIR mice, Figure 10E, individual values"}}, "note": "Values joined by “and” are separate entries in the source; they are usually repeats but may differ in a detail not shown here. Equal values may be shown once.", "data": [{"smiles": "Brc1ccc2c(-c3csc(-c4c[nH]c5c(Br)cccc45)n3)c[nH]c2c1", "note": "[32-134D, 4-(6-bromo-1H-indol-3-yl)-2-(7-bromo-1H-indol-3-yl)thiazole]", "values": [{"measurement": "retinal NV in OIR mice (in words)", "setting": "5 consecutive days of i.p. injections 20 mg/kg 32-134D", "result": "marked reduction in retinal NV"}, {"measurement": "Figure 14 C (retinal NV, OIR)", "setting": "14ng intraocular, individual values", "result": "3.954 and 13.1715 and 11.5498 and 7.756 and 10.0719 and 10.2983"}, {"measurement": "Figure 14 C (retinal NV, OIR)", "setting": "70ng intraocular, individual values", "result": "3.009 and 6.226 and 3.283 and 2.049 and 6.5224 and 7.021"}, {"measurement": "Figure 14 E (retinal NV, OIR)", "setting": "Figure 14E, 280ng intraocular, individual values", "result": "3.652 and 2.167 and 0.762 and 1.534 and 2.454 and 1.3869"}, {"measurement": "avascular area (%)", "setting": "[1]", "result": "39.7919% and 29.3948% and 27.2246% and 38.1203% and 35.7742% and 31.6081% and 33.2821% and 34.1%"}, {"measurement": "neovascular area (%)", "setting": "[1]", "result": "6.529% and 6.16% and 5.906% and 5.171% and 3.4% and 5.22% and 4.584% and 1.45%"}, {"measurement": "inhibition of retinal NV at P17", "setting": "OIR mice, single intraocular injection 32-134D 14 ng at P12", "result": "~75", "unit": "%"}, {"measurement": "inhibition of retinal NV at P17", "setting": "OIR mice, single intraocular injection 32-134D 280 ng at P12", "result": "approximately 85%"}]}]}
